Active and inactive are the calls of the source.
Legend:
[1] = target: Ras and Rab interactor 1/Tyrosine-protein kinase ABL1 (Homo sapiens, UniProt P00519+Q13671); format: functional;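 further: biochemical TR-FRET dose-response test measuring inhibition of binding between Rin1 and Abl proteins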
[2] = target: T1, High affinity choline transporter 1 (Homo sapiens, UniProt Q9GZV3); experiment: CHT inhibitors, dose response, cell-based, 5-point CRC, membrane potential dye (AID 504840); format: functional
T1 sequence (Q9GZV3 whole entry): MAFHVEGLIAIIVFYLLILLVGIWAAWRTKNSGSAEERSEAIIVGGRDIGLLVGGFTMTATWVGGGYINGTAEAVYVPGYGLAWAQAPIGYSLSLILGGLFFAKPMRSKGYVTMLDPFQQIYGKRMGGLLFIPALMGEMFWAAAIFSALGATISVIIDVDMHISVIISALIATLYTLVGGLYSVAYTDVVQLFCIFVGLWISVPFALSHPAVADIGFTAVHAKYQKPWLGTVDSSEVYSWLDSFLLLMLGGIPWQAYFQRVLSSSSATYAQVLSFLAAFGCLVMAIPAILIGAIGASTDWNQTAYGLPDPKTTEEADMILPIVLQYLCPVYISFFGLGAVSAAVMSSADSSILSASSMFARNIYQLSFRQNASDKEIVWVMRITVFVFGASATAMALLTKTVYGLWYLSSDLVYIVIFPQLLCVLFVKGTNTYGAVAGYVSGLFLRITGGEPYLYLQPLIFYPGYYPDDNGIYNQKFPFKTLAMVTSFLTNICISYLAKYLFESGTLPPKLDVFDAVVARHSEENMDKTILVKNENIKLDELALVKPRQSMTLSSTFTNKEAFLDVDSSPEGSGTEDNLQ

[3] = insulin promoter down-regulators in MIN6 cells, imaging, high-content screening, mouse beta cells (AID 1628); format: functional
[4] = cytotoxicity in MIN6 insulinoma cells, dose response, cytotoxicity control, cell-based, mouse insulinoma (AID 2122); format: functional;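 further: confirmatory high-throughput counterscreen run to flag cytotoxic compounds; mouse MIN-6 beta cells carrying an insulin promoter eGFP reporter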
[5] = target: Dual specificity tyrosine-phosphorylation-regulated kinase 1A (Rattus norvegicus, UniProt Q63470); format: biochemical, Homo sapiens
[6] = target: Dual specificity protein kinase CLK1 (Homo sapiens, UniProt P49759); experiment: CLK1 kinase inhibitors, off-target check, dose response, selectivity assay for Dyrk1A inhibitor project, biochemical, cherry-picked samples (AID 588811)
Dual specificity protein kinase CLK1, sequence (P49759 whole entry): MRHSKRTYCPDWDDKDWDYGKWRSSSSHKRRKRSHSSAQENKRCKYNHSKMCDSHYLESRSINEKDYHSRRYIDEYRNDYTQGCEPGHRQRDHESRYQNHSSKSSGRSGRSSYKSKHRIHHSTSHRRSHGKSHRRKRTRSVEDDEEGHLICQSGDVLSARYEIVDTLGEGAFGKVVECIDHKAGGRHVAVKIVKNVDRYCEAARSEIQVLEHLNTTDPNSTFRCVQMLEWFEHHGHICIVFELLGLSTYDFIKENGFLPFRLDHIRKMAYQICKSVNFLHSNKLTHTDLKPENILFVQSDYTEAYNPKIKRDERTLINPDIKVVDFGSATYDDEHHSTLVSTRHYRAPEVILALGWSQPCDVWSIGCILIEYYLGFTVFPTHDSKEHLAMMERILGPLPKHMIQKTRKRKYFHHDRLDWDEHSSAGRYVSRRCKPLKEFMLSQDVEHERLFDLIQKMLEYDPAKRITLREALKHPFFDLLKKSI

[7] = target: T2, Rac GTPase-activating protein 1 (Homo sapiens, UniProt Q9H0H5); experiment: MgcRacGAP GTPase-activating activity inhibitors, confirmation, biochemical, ADP Hunter fluorescence, primary and confirmatory (AID 624330); format: functional
T2 sequence (Q9H0H5 whole entry): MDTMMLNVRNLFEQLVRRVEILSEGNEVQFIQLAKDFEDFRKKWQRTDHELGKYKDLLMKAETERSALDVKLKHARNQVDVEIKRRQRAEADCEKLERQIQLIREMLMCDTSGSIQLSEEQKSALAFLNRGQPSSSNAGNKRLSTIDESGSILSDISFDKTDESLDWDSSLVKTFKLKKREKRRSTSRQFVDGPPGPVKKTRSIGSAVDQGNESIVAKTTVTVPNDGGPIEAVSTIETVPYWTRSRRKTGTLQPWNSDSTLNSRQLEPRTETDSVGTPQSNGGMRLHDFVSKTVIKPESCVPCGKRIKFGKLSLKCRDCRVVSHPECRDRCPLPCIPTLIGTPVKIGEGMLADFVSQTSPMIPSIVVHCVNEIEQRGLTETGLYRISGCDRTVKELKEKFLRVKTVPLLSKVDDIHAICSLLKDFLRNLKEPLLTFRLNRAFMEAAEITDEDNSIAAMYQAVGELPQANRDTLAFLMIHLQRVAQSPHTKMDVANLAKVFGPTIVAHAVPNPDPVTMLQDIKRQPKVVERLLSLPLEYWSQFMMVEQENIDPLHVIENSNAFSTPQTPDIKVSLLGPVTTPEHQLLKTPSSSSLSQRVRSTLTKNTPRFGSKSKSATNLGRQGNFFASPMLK

[8] = cytotoxicity in HEK-293T cells, dose response, cytotoxicity control for TCR NF-kB inhibitor project, luminescence, T-cell screen hits (AID 489026); format: functional, cell-based;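 further: cells exposed to compound about 14 hours before the viability readout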
[9] = HeLa cell cytotoxicity, dose response, cytotoxicity control for MgcRacGAP inhibitor project (AID 624300); format: functional
[10] = cytotoxicity toward NIH3T3 fibroblasts, dose response, counter-screen, cell-based, ATP luminescence, mouse fibroblasts (AID 2010); format: functional;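 further: cells exposed to compound for about 90 hours before reading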
[11] = target: T3, Microphthalmia-associated transcription factor (Homo sapiens, UniProt O75030); experiment: TRPM1 promoter luciferase signal decrease, dose response, MITF inhibitor project, cell-based, SK-MEL-5, cherry-picked, set 3 (AID 493073); format: functional
T3 sequence (O75030 whole entry): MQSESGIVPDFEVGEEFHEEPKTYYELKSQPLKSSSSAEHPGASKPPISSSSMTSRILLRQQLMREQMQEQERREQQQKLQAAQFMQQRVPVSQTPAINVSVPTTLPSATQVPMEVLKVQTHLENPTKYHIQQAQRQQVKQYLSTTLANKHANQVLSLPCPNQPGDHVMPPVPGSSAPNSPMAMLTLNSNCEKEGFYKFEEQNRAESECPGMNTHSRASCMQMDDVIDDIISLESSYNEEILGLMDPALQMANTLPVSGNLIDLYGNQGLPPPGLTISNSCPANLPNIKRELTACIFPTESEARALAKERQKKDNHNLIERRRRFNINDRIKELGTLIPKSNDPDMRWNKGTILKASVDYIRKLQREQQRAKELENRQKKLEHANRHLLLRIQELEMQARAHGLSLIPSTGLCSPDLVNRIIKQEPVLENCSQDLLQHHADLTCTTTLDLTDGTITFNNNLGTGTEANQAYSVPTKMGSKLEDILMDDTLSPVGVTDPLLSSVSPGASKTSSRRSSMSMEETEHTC

[12] = inhibitors of intracellular T. cruzi replication, confirmation, NIH3T3 host cells, beta-gal luminescence (AID 2044); format: functional, cell-based;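 further: intracellular parasites grown in NIH/3T3 mouse fibroblasts as host cells; luminescent beta-galactosidase reporter signal from transgenic T. cruzi replicating inside host cells; inhibitors lower the luminescence signal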
A-375 = experiment: A375 melanoma cell viability reduction, dose response, counter-screen for MITF modulator project, cherry-pick samples, set 2 (AID 540335); format: functional, cell-based; settings: Homo sapiens
[13] = target: T1, High affinity choline transporter 1; experiment: CHT inhibitors, dose response, cell-based, 10-point CRC, membrane potential dye (AID 588401); format: functional;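 further: membrane potential dye fluorescence of choline-evoked depolarization via CHT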
HEK293 [14] = experiment: cells; settings: Homo sapiens
HEK293 [15] = experiment: cells; settings: Homo sapiens; remark: listed apart in the source

Ras and Rab interactor 1/Tyrosine-protein kinase ABL1, sequence (P00519 whole entry): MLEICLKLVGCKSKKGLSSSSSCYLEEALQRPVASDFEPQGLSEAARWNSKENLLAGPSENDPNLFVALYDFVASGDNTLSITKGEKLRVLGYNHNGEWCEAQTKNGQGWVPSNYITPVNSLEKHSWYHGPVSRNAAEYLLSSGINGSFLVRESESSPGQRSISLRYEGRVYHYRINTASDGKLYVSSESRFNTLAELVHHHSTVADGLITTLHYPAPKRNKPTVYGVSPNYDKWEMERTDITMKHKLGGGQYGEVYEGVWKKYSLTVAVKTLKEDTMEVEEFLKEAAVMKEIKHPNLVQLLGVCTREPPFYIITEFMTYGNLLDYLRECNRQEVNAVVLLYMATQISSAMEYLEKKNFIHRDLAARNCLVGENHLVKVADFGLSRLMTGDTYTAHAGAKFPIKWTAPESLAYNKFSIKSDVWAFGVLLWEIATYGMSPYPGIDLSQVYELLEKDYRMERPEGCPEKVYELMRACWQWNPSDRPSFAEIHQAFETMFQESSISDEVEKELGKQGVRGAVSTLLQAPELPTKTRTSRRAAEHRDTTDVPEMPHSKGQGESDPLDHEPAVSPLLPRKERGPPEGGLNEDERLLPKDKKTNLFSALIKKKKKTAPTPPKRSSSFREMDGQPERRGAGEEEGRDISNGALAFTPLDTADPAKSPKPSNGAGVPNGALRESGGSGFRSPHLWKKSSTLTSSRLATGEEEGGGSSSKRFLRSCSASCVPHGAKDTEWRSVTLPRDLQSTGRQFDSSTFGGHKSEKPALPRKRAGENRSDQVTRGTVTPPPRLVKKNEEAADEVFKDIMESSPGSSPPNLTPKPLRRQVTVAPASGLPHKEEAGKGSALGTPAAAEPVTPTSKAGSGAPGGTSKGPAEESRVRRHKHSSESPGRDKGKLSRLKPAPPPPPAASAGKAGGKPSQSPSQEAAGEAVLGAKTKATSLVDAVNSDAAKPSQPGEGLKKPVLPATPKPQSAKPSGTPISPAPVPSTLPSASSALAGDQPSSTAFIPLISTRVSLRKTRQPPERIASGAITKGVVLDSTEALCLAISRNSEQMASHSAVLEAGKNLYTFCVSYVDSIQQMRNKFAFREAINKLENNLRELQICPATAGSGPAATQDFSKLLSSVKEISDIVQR
Ras and Rab interactor 1/Tyrosine-protein kinase ABL1, sequence (Q13671 whole entry): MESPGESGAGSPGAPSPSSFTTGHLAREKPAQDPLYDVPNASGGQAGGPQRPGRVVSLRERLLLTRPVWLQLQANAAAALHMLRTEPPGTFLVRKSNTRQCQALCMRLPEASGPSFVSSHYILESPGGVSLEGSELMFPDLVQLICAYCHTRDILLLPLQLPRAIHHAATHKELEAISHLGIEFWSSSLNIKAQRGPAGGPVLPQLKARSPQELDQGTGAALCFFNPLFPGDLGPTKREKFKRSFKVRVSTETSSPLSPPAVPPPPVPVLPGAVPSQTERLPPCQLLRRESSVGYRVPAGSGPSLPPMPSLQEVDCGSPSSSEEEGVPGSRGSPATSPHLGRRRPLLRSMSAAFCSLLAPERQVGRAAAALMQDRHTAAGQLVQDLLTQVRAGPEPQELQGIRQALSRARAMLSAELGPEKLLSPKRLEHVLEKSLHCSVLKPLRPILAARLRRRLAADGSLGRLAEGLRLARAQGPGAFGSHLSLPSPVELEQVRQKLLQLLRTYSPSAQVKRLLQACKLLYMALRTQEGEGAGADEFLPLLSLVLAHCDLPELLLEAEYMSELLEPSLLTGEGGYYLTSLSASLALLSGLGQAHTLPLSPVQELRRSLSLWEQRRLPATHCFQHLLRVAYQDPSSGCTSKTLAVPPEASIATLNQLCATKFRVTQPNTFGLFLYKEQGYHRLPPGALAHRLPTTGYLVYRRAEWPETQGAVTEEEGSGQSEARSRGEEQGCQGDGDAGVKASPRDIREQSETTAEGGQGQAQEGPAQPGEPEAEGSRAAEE

CCOC(=O)N1CCN(C(=O)C2CCN(c3ncnc4c3sc3cccc(F)c34)CC2)CC1
IC50 [1]: 14.2 µM (inactive)
IC50 [2]: 13.8 µM (active)
IC50 [3]: 1.49 µM (active)
IC50 [4]: 1.05 µM (active)

Cc1nc(NC(=O)c2ccccc2)sc1-c1csc(N)n1
AC50 [5]: 1.26 µM (active)
AC50 [6]: 1.35 µM (active)

COc1cc(/C=C2/SC(Nc3ccc(O)cc3)=NC2=O)ccc1O
IC50 [7]: 20 µM (active)
IC50 [8]: 42.7 µM (inactive)
CC50 [9]: 61.1 µM (active)

CN(Cc1ccccc1)C1=CC(=[N+]2CCCCC2)CC(C)(C)C1
EC50 [10]: > 60 µM (not active)
AC50 [11]: 2.46 µM (active)
EC50 [12]: < 100 nM (active)
IC50 [8]: > 80 µM (inactive)
AC50 (A-375): 84.3 µM (active)
EC50 (cells): 32 nM (active)

CCn1c(SCCC(C)C)nnc1-c1c[nH]c2ccccc12
IC50 [13]: 2.41 µM (active)
IC50 [2]: 0.955 µM (active)

COc1ccc(-c2nccc(NCc3ccc(C)cc3)n2)cc1
AC50 [6]: 0.00697 µM (active)

COc1ccccc1-c1ccc2c(c1)C(C)(Cc1ccc(F)c(Cl)c1)C(=O)N2 (stereo not given)
EC50 (HEK293 [14]): > 59.6 µM (inactive)
EC50 (HEK293 [15]): > 59.6 µM (inactive)

Reference: ChEMBL document CHEMBL1201862, “PubChem BioAssay data set” (2004)
